Drawing on ChEMBL document CHEMBL5390205, “Acidonemycins A-C, Glycosylated Angucyclines with Antivirulence Activity Produced by the Acidic Culture of Streptomyces indonesiensis” (J Nat Prod, 2023), this text covers Activity for three compounds.

The source made the active and inactive calls. No cut-off for these calls is given here.

Holding throughout (assay type): functional, organism-based
Holding throughout (conditions): dose 0-100 µg/ml

In experiment [1] the test system is Staphylococcus aureus. Nature of the experiment: Antivirulence activity against methicillin-resistant Staphylococcus aureus USA300 LAC assessed as inhibition of delta toxin production incubated for 22 hrs by LC-MS analysis.
Experiment [2] has as its system Staphylococcus aureus. Nature of the experiment: Antivirulence activity against methicillin-resistant Staphylococcus aureus USA300 LAC assessed as inhibition of biofilm formation incubated for 22 hrs by crystal violet staining based assay.
Experiment [3] deals with Staphylococcus aureus. Nature of the experiment: Antivirulence activity against methicillin-resistant Staphylococcus aureus USA300 LAC assessed as inhibition of phenol-soluble modulin alpha1-4 production incubated for 22 hrs by LC-MS analysis.

With `C[C@@H]1CC(=O)c2c(ccc3c2C(=O)c2cccc(O[C@@H]4O[C@H](C(=O)O)[C@@H](O)[C@H](O)[C@H]4O)c2C3=O)C1`, the Activity entry in the experiment with Staphylococcus aureus [1], in the experiment with Staphylococcus aureus [2] and with Staphylococcus aureus [3] was “Dose-Dependent Effect” in each case.
Take `COC(=O)[C@H]1O[C@@H](Oc2cccc3c2C(=O)c2ccc4c(c2C3=O)C(=O)C[C@@H](C)C4)[C@H](O)[C@@H](O)[C@@H]1O`: the Activity result in the experiment with Staphylococcus aureus [1], in the experiment with Staphylococcus aureus [2] and in the experiment on Staphylococcus aureus [3] was “Dose-Dependent Effect” in each case.
For the compound `COC(=O)[C@H]1O[C@@H](Oc2cccc3c2C(=O)O[C@H]3c2c(O)ccc3c2C(=O)C[C@@H](C)C3)[C@H](O)[C@@H](O)[C@@H]1O`, the result with Staphylococcus aureus [1], with Staphylococcus aureus [2] and with Staphylococcus aureus [3] was inactive.
